CCc1nnc(NC(=O)CCCCCNC(C)=O)s1
solubility (mole fraction)
Conditions	288.15 K	293.15 K	298.15 K	303.15 K	308.15 K	313.15 K	318.15 K
in ethanol	0.000578	0.000733	0.000965	0.00118	0.00162	0.0021	0.0026
in n-hexane	1.54e-05	1.81e-05	2.15e-05	2.47e-05	3.05e-05	3.55e-05	4.13e-05
in n-octanol	0.000685	0.000814	0.000961	0.00113	0.00142	0.00167	0.00194

— BigSolDB 2.1
